# Reference: patent publication US9695155B2, “Herbicidal substituted pyrimidinyloxy benzene compounds” (E. I. DU PONT DE NEMOURS AND COMPANY, priority 2013, dated 2017)
# Experiments:
# large (Lg) crabgrass [1] = assay: Test C preemergence; assay type: in vivo, Digitaria sanguinalis; settings: for Crabgrass, Large plant response rating: preemergence
# How it was run: (§1)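 Greenhouse herbicide screen. Pre: seeded loam/sand, sprayed at planting. Post: 1–4 leaf plants (2–18 cm) in peat-based mix. Formulation: solvent mixture + surfactant, non-phytotoxic. Readout: visual % control vs untreated, 13–15 d; dash = not tested.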
# barnyardgrass [2] = assay: Test A postemergence; assay type: in vivo, Echinochloa crus-galli; settings: 0 to 100 scale where 0 is no effect and 100 is complete control
# How it was run: (§2)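 Injury scores run from 0, no effect, to 100, complete control, judged by eye against untreated plants roughly 10 days after treatment. Chemicals carried a surfactant in a non-phytotoxic solvent and went onto loam–sand soil preemergence or onto one- to two-leaf seedlings postemergence.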
# oilseed rape = assay: Test C postemergence; assay type: in vivo, Brassica napus; settings: for Plant response rating, Oilseed Rape: Postemergence, scale 0 to 100 (0 no effect, 100 complete control)
# How it was run: as §1
# rice = assay: Test B flooded paddy test; assay type: in vivo, Oryza sativa; settings: Flood, 250 g ai/ha; 0 to 100 scale where 0 is no effect and 100 is complete control
# How it was run: (§3)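 Visual ratings on a 0 to 100 scale, where 100 means complete control, compared treated plants with controls after 13 to 15 days in a greenhouse. Treatment went into paddy water 3 cm deep over the soil, applied to plants at the 2-leaf stage.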
# large (Lg) crabgrass [3] = assay: Test C postemergence; assay type: in vivo, Digitaria sanguinalis; settings: for Plant response rating, Crabgrass, Large: Postemergence
# How it was run: as §1
# barnyardgrass [4] = assay: Test A preemergence; assay type: in vivo, Echinochloa crus-galli
# How it was run: as §2
# johnsongrass = assay: Test C preemergence; assay type: in vivo, Sorghum halepense; settings: for Johnsongrass plant response rating: preemergence
# How it was run: as §1
# waterhemp = assay: Test C postemergence; assay type: in vivo, Amaranthus rudis; settings: for Plant response rating, Waterhemp: Postemergence, scale 0 to 100 (0 no effect, 100 complete control)
# How it was run: as §1
# soybean = assay: Test C postemergence; assay type: in vivo, Glycine max; settings: for Plant response rating, Soybean: Postemergence, scale 0 to 100 (0 no effect, 100 complete control)
# How it was run: as §1
# lambsquarters = assay: Test C postemergence; assay type: in vivo, Chenopodium album; settings: for Plant response rating, Lambsquarters: Postemergence, scale 0 to 100 (0 no effect, 100 complete control)
# How it was run: as §1
# corn = assay: Test A postemergence; assay type: in vivo, Zea mays; settings: 0 to 100 scale where 0 is no effect and 100 is complete control
# How it was run: as §2
# galium = assay: Test C preemergence; assay type: in vivo, Galium aparine; settings: for Galium plant response rating: preemergence
# How it was run: as §1
# velvetleaf [5] = assay: Test C postemergence; assay type: in vivo, Abutilon theophrasti; settings: for Plant response rating, Velvetleaf: Postemergence, scale 0 to 100 (0 no effect, 100 complete control)
# How it was run: as §1
# velvetleaf [6] = assay: Test C preemergence; assay type: in vivo, Abutilon theophrasti; settings: for Velvetleaf plant response rating: preemergence
# How it was run: as §1
# sedge, umbrella = assay: Test B flooded paddy test; assay type: in vivo, Cyperus difformis; settings: Flood, 250 g ai/ha; 0 to 100 scale where 0 is no effect and 100 is complete control
# How it was run: as §3
# [7] = 16 g ai/ha, scale 0 to 100 (0 no effect, 100 complete control)
# [8] = 62 g ai/ha, scale 0 (no effect) to 100 (complete control)
# [9] = 125 g ai/ha, scale 0 (no effect) to 100 (complete control)
# [10] = Preemergence, 31 g ai/ha, scale 0 to 100, 0 no effect, 100 complete control
smiles,measurement,setting,value
CCOc1cnn(-c2c(C#N)cccc2Oc2ncc(F)cn2)c1 [Compound 89],"Crabgrass, Large plant response rating",large (Lg) crabgrass [1]; [7],80
same,"Crabgrass, Large plant response rating",large (Lg) crabgrass [1]; [8],100
same,"Crabgrass, Large plant response rating",large (Lg) crabgrass [1]; [9],100
same,"Plant response rating, Crabgrass, Large",large (Lg) crabgrass [1]; [10],100
same,"Plant response rating, Barnyardgrass",barnyardgrass [2]; 125 g ai/ha,40
same,"Plant response rating, Barnyardgrass",barnyardgrass [2]; 500 g ai/ha,90
same,"Plant response rating (0 to 100), Oilseed Rape","oilseed rape; 125 g ai/ha, postemergence",60
same,"Plant response rating, Oilseed Rape","oilseed rape; 31 g ai/ha, 13 to 15 days",25
same,"Plant response rating, Oilseed Rape",oilseed rape; 62 g ai/ha,55
same,"Plant response rating, Rice",rice,20
same,"Crabgrass, Large plant response rating","large (Lg) crabgrass [3]; 16 g ai/ha, postemergence, visual rating, scale 0 to 100 (0 no effect, 100 complete control), 13 to 15 days",5
same,"Plant response rating (0 to 100), Crabgrass, Large","large (Lg) crabgrass [3]; 125 g ai/ha, postemergence",5
same,"Plant response rating, Crabgrass, Large","large (Lg) crabgrass [3]; 31 g ai/ha, scale 0 to 100 (0 no effect, 100 complete control), 13 to 15 days",5
same,"Plant response rating, Crabgrass, Large","large (Lg) crabgrass [3]; 62 g ai/ha, scale 0 to 100 (0 no effect, 100 complete control)",5
same,"Plant response rating, Barnyardgrass","barnyardgrass [4]; 125 g ai/ha, 0 to 100 scale where 0 is no effect and 100 is complete control",60
same,Barnyardgrass plant response rating,"barnyardgrass [4]; 500 g ai/ha, 0 to 100 scale, 0 no effect, 100 complete control, approx. 10 days",90
same,Johnsongrass plant response rating,johnsongrass; [7],0
same,Johnsongrass plant response rating,johnsongrass; [8],20
same,Johnsongrass plant response rating,johnsongrass; [9],75
same,"Plant response rating, Johnsongrass",johnsongrass; [10],0
same,"Plant response rating (0 to 100), Waterhemp","waterhemp; 125 g ai/ha, postemergence",60
same,"Plant response rating, Waterhemp","waterhemp; 31 g ai/ha, 13 to 15 days",40
same,"Plant response rating, Waterhemp",waterhemp; 62 g ai/ha,30
same,"Plant response rating (0 to 100), Soybean","soybean; 125 g ai/ha, postemergence",95
same,"Plant response rating, Soybean","soybean; 31 g ai/ha, 13 to 15 days",65
same,"Plant response rating, Soybean",soybean; 62 g ai/ha,90
same,"Plant response rating (0 to 100), Lambsquarters","lambsquarters; 125 g ai/ha, postemergence",55
same,"Plant response rating, Lambsquarters","lambsquarters; 31 g ai/ha, 13 to 15 days",30
same,"Plant response rating, Lambsquarters",lambsquarters; 62 g ai/ha,65
same,"Plant response rating, Corn",corn; 125 g ai/ha,60
same,"Plant response rating, Corn",corn; 500 g ai/ha,90
same,Galium plant response rating,galium; [7],30
same,Galium plant response rating,galium; [8],85
same,Galium plant response rating,galium; [9],100
same,"Plant response rating, Galium",galium; [10],100
same,"Plant response rating (0 to 100), Velvetleaf","velvetleaf [5]; 125 g ai/ha, postemergence",40
same,"Plant response rating, Velvetleaf","velvetleaf [5]; 31 g ai/ha, 13 to 15 days",15
same,"Plant response rating, Velvetleaf",velvetleaf [5]; 62 g ai/ha,25
same,Velvetleaf plant response rating,velvetleaf [6]; [7],20
same,Velvetleaf plant response rating,velvetleaf [6]; [8],100
same,Velvetleaf plant response rating,velvetleaf [6]; [9],100
same,"Plant response rating, Velvetleaf",velvetleaf [6]; [10],70
same,"Plant response rating, Sedge, Umbrella","sedge, umbrella",85
